Assay: xn = mol fraction of the nth substance listed
Settings: 273.15 K, Fluid (supercritical or subcritical phases), x1 = 0.97; for mass density: Vibrating tube method; for speed of sound: Frequency=5 MHz, Pulse-echo method

O=C=O [carbon dioxide] + CO
Settings	mass density [kg/m3]	speed of sound [m/s]
5000 kPa	943.89	–
5025 kPa	944.05	–
5050 kPa	944.22	–
5075 kPa	944.38	–
5100 kPa	944.55	–
5125 kPa	944.71	–
5150 kPa	944.88	–
5175 kPa	945.05	–
5200 kPa	945.28	–
5225 kPa	945.45	–
5250 kPa	945.61	–
5275 kPa	945.83	–
5300 kPa	945.95	–
5325 kPa	946.18	–
5350 kPa	946.35	–
5375 kPa	946.51	–
5400 kPa	946.68	–
5425 kPa	946.88	–
5450 kPa	947.02	–
5475 kPa	947.19	–
5500 kPa	947.38	–
5525 kPa	947.55	–
5550 kPa	947.7	–
5575 kPa	947.84	–
5600 kPa	948	–
5625 kPa	948.22	–
5650 kPa	948.35	–
5675 kPa	948.48	–
5700 kPa	948.64	–
5725 kPa	948.81	–
5750 kPa	948.97	–
5775 kPa	949.13	–
5800 kPa	949.3	–
5825 kPa	949.41	–
5850 kPa	949.62	–
5875 kPa	949.74	–
5900 kPa	949.87	–
5925 kPa	950.03	–
5950 kPa	950.2	–
5975 kPa	950.35	–
6000 kPa	950.47	–
6020 kPa	–	581.6
6025 kPa	950.61	–
6040 kPa	–	581
6050 kPa	950.77	–
6075 kPa	950.93	–
6100 kPa	951.1	–
6125 kPa	951.26	–
6150 kPa	951.39	–
6175 kPa	951.59	–
6200 kPa	951.67	–
6225 kPa	951.86	–
6250 kPa	952.08	–
6275 kPa	952.24	–
6300 kPa	952.33	–
6325 kPa	952.49	–
6350 kPa	952.65	–
6375 kPa	952.82	–
6400 kPa	952.98	–
6425 kPa	953.14	–
6450 kPa	953.31	–
6475 kPa	953.47	–
6500 kPa	953.64	–
6525 kPa	953.73	–
6550 kPa	953.88	–
6575 kPa	954.04	–
6600 kPa	954.21	–
6625 kPa	954.37	–
6650 kPa	954.53	–
6675 kPa	954.7	–
6700 kPa	954.86	–
6725 kPa	955.03	–
6750 kPa	955.19	–
6775 kPa	955.35	–
6800 kPa	955.52	–
6825 kPa	955.67	–
6850 kPa	955.82	–
6875 kPa	955.96	–
6900 kPa	956.09	–
6925 kPa	956.25	–
6950 kPa	956.42	–
6975 kPa	956.58	–
7000 kPa	956.75	–
7025 kPa	956.91	–
7050 kPa	956.99	–
7075 kPa	957.15	–
7100 kPa	957.34	–
7125 kPa	957.48	–
7150 kPa	957.65	–
7175 kPa	957.81	–
7200 kPa	957.97	–
7225 kPa	958.14	–
7250 kPa	958.27	–
7275 kPa	958.38	–
7300 kPa	958.55	–
7325 kPa	958.71	–
7350 kPa	958.87	–
7375 kPa	959	–
7400 kPa	959.12	–
7425 kPa	959.28	–
7450 kPa	959.45	–
7475 kPa	959.61	–
7500 kPa	959.77	–
7525 kPa	959.94	–
7550 kPa	960.02	–
7575 kPa	960.18	–
7600 kPa	960.35	–
7625 kPa	960.51	–
7650 kPa	960.68	–
7675 kPa	960.84	–
7700 kPa	960.92	–
7725 kPa	961.08	–
7750 kPa	961.25	–
7775 kPa	961.41	–
7800 kPa	961.54	–
7825 kPa	961.66	–
7850 kPa	961.82	–
7875 kPa	961.98	–
7900 kPa	962.15	–
7925 kPa	962.23	–
7950 kPa	962.39	–
7975 kPa	962.56	–

Reference: the NIST ThermoML archive (doi:10.1016/j.jct.2016.03.026)
